The source of these data is PubChem BioAssay (NCI).

Where “and” joins values, the source holds several entries; their conditions need not be identical. Equal entries are not always repeated.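 Interpolation was linear, between the two tested concentrations surrounding the appropriate level; five concentrations were tested over 48 hours in 96-well plates. GI50 marks 50% less growth. TGI denotes the concentration required for complete inhibition of growth.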 Bounds are passed on as bounds.

Test in all cases: NCI anticancer screen, dose series, 48 h
Test [1] relates to ACHN renal.
In test [2] the test system is HCT-15 colon.
Test [3] relates to HOP-92 NSCLC.
Test [4] relates to MDA-MB-231 breast.
Test [5] has as its system NCI-H226 lung.
Test [6] deals with SF-268 CNS.
For test [7], the system named is SF-295 CNS.
The test system of test [8] is SK-OV-3 ovarian.
Test [9] deals with SNB-75 CNS.
The test system of test [10] is HCC-2998 colon.

In the case of `CCOC(=O)C(C)c1nc2cc(N3CCN(C)CC3)c(F)cc2[nH]c1=O` (configuration not stated), the TGI in test [1], in test [2], in [3], in test [4], in test [5] and in [6] was above 100 µM each time. Also, the TGI in test [7], in test [8] and in [9] was above 100 µM each time.
Consider `CN1CCCCC(C(O)(c2ccccc2)c2ccccc2)C1=O` (configuration not stated), for which the TGI in test [1] is above 100 µM; in test [10], above 100 µM; in test [2] it was 32.1 µM; in [3] it was above 100 µM; in test [5], above 100 µM; in [6], above 100 µM. The TGI in test [7], in test [8] and in test [9] was above 100 µM in each case.
With `CN(c1ccccc1Cl)S(=O)(=O)c1ccccc1[N+](=O)[O-]`, the TGI in test [10], in test [2], in [4], in [5], in test [6] and in [7] was above 100 µM each time. Moreover, the TGI in test [8] and in test [9] was above 100 µM each time.
As to `Cc1ccc2nc(Cl)c(/C=N/N3C(=O)/C(=C/c4ccc(N(C)C)cc4)N=C3c3ccccc3)cc2c1`, the TGI in test [1], in test [10], in test [2], in [3], in test [4] and in test [6] was above 100 µM throughout. The TGI in test [7], in test [8] and in test [9] was above 100 µM each time.
As for `Clc1ncnc2c1ncn2CCCCCCCCCCCCn1cnc2c(Cl)ncnc21`, the TGI was 27.9 µM in test [1]; 19.5 µM in test [10]; 25.8 µM in [2]; 19.4 µM in [3]; 24.5 µM in test [5]; 27.7 µM in [6]. The results for the TGI in [7] and in [8] were 28.8 µM and 33.3 µM, respectively.
For `COc1ccc2c(c1)CC[C@@H]1[C@@H]2CC[C@]2(C)C(=O)/C(=C/c3cc(OC)c(OC)c(OC)c3)C[C@@H]12`, the TGI was 40.7 µM in test [1]; above 100 µM in [10]; above 100 µM in test [2]; 45.4 µM in [3]; 42 µM in test [4]; 74.6 µM in [7]. The figures for the TGI in [8] and in [9] were above 100 µM and 38.9 µM, respectively.
With `CN(C)CCn1c(=O)c2ccc3c4c(nn3CCN(C)C)c3ccccc3n(c1=O)c24`, the TGI in test [1] was determined as 0.765 µM; in [10] it was 0.534 µM; in [2], 1.39 µM; in test [4] it was 1.96 µM; in test [5] it was 2.92 µM; in test [6], 5.12 µM. For the same molecule, the TGI stood at 0.849 µM in test [7], 3.43 µM in test [8] and 0.145 µM in [9].
As to `CS(=O)(=O)O.[Ag]`, the TGI in [1] worked out at 16.8 µM; in test [10], 28.8 µM; in test [2], 36.5 µM; in test [4], 41 µM; in test [5], 51.4 µM; in test [6], 39.7 µM. Moreover, the TGI in test [7] was above 100 µM; in test [8] it was 36.4 µM; in test [9], 35.6 µM.
As for `CC(=O)OCC1OC(c2nnc(C)o2)=CC(OC(C)=O)C1OC(C)=O` (configuration not stated), the TGI in test [1], in test [4], in test [5], in test [6], in test [7] and in test [9] was above 100 µM in each case.
On to `C/C=C\C(CC(=O)NCCC1CN(C(=O)c2ccccc2)c2ccccc21)CC(=O)OC` (configuration not stated), for which the TGI in [1], in test [10], in test [2], in [3], in test [4] and in test [6] was above 100 µM in each case. Also, the TGI in [7], in test [8] and in [9] was above 100 µM in each case.
In the case of `Cc1cc([N+](=O)[O-])ccc1N=NC(=O)NNc1ccc([N+](=O)[O-])cc1C`, the TGI in [1] was determined as 29.4 µM; in test [10] it was 31 µM; in test [2], 50.2 µM; in test [5], 31.5 µM; in test [6] it was 40.9 µM; in test [9] it was 34.7 µM.
In the case of `Nc1nc2cc(CNc3ccc(C(=O)NC(CCC(=O)O)C(=O)O)cc3)ccc2nc1-c1ccccc1` (configuration not stated), the TGI in test [1], in [10], in test [2], in test [4], in test [5] and in test [6] was above 10 µM throughout. Moreover, the TGI in [7], in test [8] and in test [9] was above 10 µM each time.
As for `COc1ccc2c(c1)-c1oc3ccccc3c(=O)c1CO2`, the TGI in test [1] was above 100 µM; in test [10], above 100 µM; in test [2], above 100 µM; in test [4] it was 90.8 µM; in [5], above 100 µM; in test [6] it was above 100 µM. Moreover, the TGI in [7] is above 100 µM; in test [8] it was above 100 µM; in [9], 73 µM.
In the case of `COC(=O)c1cccc(C(=O)OC)c1`, the TGI in test [1], in [10], in [2], in test [3], in [5] and in test [6] was above 100 µM each time. Further, the TGI in test [7], in [8] and in test [9] was above 100 µM in each case.
On to `CC1(C)[C@@H]2C[C@H]1C(Cc1cccc(C[C@H]3c4cc(-c5ccccn5)ncc4[C@H]4C[C@@H]3C4(C)C)c1)c1cc(-c3ccccn3)ncc12` (some centres not stated), for which the GI50 in test [1] was 0.605 µM. For the same molecule, the TGI in test [1] is above 100 µM; in [10], above 100 µM; in test [2], above 53 µM; in test [4], above 100 µM; in [6], above 100 µM; in test [7], above 54.3 µM. Moreover, the TGI is above 33.4 µM in test [8] and above 100 µM in test [9].
In the case of `COc1nc2[nH]ccc2c(=O)n1C`, the TGI in test [1], in [2], in test [3], in [6], in test [7] and in test [9] was above 100 µM throughout.
On to `Cc1nnc2sc(N/N=C/c3ccccc3)nn12`, for which the TGI in [1], in test [2], in test [4], in test [5], in [6] and in test [7] was above 100 µM throughout. Further, the TGI is 88.1 µM in test [8] and above 100 µM in test [9].
`COC(=O)c1ccccc1CC(Cc1ccccc1)C(=O)OC` (configuration not stated): the TGI in [1] was above 100 µM; in test [10], above 100 µM; in test [2], above 100 µM; in [4], above 100 µM; in test [5], above 100 µM; in [6], 61.3 µM. Moreover, the TGI is above 100 µM in [7], above 100 µM in test [8] and 73.7 µM in test [9].
For the molecule `CC(=O)Nc1ccc(-c2nnc(SCC(=O)Nc3ccccc3C)o2)cc1`, the TGI in test [1], in test [2], in test [3], in test [5], in [6] and in test [7] was above 100 µM throughout. In addition, the TGI in test [8] and in [9] was above 100 µM in each case.
`O=C1/C(=C/c2ccco2)NC(=S)N1CN1CCOCC1`: the TGI in [1], in test [2], in [3], in test [4], in [5] and in test [6] was above 100 µM in each case. The TGI in [7], in test [8] and in test [9] was above 100 µM in each case.
Regarding `Cc1cccc2c1C/C(=C\c1cccc(C)c1C(=O)O)C2=O`, the TGI in [1], in test [10], in [2], in test [3], in test [5] and in [6] was above 100 µM each time. Also, the TGI in test [7] and in test [9] was above 100 µM throughout.
As for `Cc1n(CC(=O)c2ccccc2)nc2sc(N)n[n+]12`, the TGI in [1], in test [10], in test [2], in test [5], in test [6] and in test [7] was above 100 µM throughout. For the same molecule, the TGI in test [8] is 74.7 µM; in [9], above 100 µM.
Consider `N#Cc1c(N2CCN(c3ccc([N+](=O)[O-])cc3)CC2)[n+](=O)c2ccc(Cl)cc2n1[O-]`, for which the TGI was 2.24 µM in test [1]; 4.4 µM in test [10]; 2.17 µM in test [2]; 13.8 µM in [5]; 10.9 µM in test [6]; above 28.3 µM in test [7]. Besides, the values for the TGI in [8] and in [9] were above 23.9 µM and above 27.9 µM, respectively.
For the molecule `Cn1ccc(C(=O)NCCCCCNC(=O)c2ccn(C)c(=O)c2O)c(O)c1=O`, the TGI in test [1], in [10], in test [2], in [3], in [4] and in [5] was above 100 µM throughout. For the same molecule, the TGI in test [6] was above 100 µM.
On to `O=C(O)c1ccc(Nc2nc3ccccc3nc2C(=O)O)cc1`, for which the TGI in [1], in test [10], in test [3], in test [4], in [6] and in test [7] was above 100 µM each time. The TGI in test [8] and in test [9] was above 100 µM throughout.
Turning to `CN(C)CC(NC(NCS)C(=O)NCCNc1ccc(NCCNC(=O)C(NCS)NC(CN(C)C)OCCl)c2c1C(=O)c1c(O)ccc(O)c1C2=O)OCCl` (configuration not stated), the TGI was 0.194 µM in test [1]; 1.86 µM in test [10]; 1.73 µM and 1.74 µM in [2]; 0.305 µM and 2.68 µM in test [4]; 0.418 µM and 1.61 µM in test [5]; 1.39 µM in [7]. Besides, the TGI in [8] was 4.11 µM; in test [9] it was 1.77 µM and 0.99 µM. The GI50 was 0.0892 µM in [2], 1.05 µM in test [4], 0.285 µM in test [5] and 0.0387 µM in test [9].
For `CC(C)C1=CC23CCC4C(C)(C(=O)O)CCCC4(C)C2CC1C(C(=O)O)C3C(=O)O` (configuration not stated), the TGI in test [1], in test [2], in [3], in test [4], in [5] and in test [6] was above 100 µM throughout. The TGI in test [7] and in test [9] was above 100 µM throughout.
Consider `c1ccc(Nc2nnc(-c3nsc4ccccc34)o2)cc1`, for which the TGI in [1] is above 100 µM; in test [10], above 100 µM; in test [2], above 100 µM; in test [3] it was above 100 µM; in test [6] it was above 100 µM; in test [9], 78.4 µM.
Regarding `CN1CC2CC(C1)c1cccc(=O)n1C2` (configuration not stated), the TGI in [1], in test [10], in test [2], in [3], in test [4] and in test [6] was above 100 µM throughout. Further, the TGI in [7], in [8] and in test [9] was above 100 µM throughout.
On to `OCCO[P+]1(OCCO)n2c3ccc2C(c2ccccc2)=C2C=CC(=N2)C(c2ccccc2)=c2ccc(n21)=C(c1ccccc1)C1=NC(=C3c2ccccc2)C=C1`, for which the TGI in test [1] stood at 1.1 µM; in [10] it was 0.327 µM; in test [2] it was 3.59 µM; in [3] it was 0.399 µM; in test [4], 0.275 µM; in test [6] it was 2.15 µM. Also, the TGI in [7] came out at 0.513 µM; in test [8], 0.569 µM; in [9], 0.273 µM.
With `COc1ccc(/C=C2\CN(C)Cc3c2[nH]c(=O)c(C#N)c3-c2ccc(OC)cc2)cc1`, the TGI in [1], in [2], in [3], in test [4], in test [5] and in test [6] was above 100 µM in each case. Further, the TGI in test [7] and in [8] was above 100 µM in each case.
